From paper PMC11595589, “A Pharmacokinetic and Bioavailability Study of Ecklonia cava Phlorotannins Following Intravenous and Oral Administration in Sprague–Dawley Rats” (Marine Drugs, 2024)

Assay: Relative polarity by RP-HPLC of EK-ECP
Format: physicochemical
Conditions: RP-HPLC chromatogram of EK-ECP
Procedure: A further detailed analysis of the phlorotannins present in EK-ECP was performed to identify and quantify the major components (individual phlorotannins) by reversed phase high performance liquid chromatography (RP-HPLC). A representative HPLC (Column: CAPCELL PAK C18; Detector: UV 234 nm) chromatogram and the identification of major components are presented in Figure 3. As shown in the chromatogram, dieckol at retention time 15.65 min was the most notable compound in EK-ECP. The chromatogram could be divided to relatively high (6–13 min), mid (13~20 min) and low polarity region (20~27 min) and each region could be represented by the regionally most notable peak 8,8′-bieckol, dieckol and PFF-A, respectively. These three phlorotannins were selected for monitoring the blood samples upon administration of EK-ECP during pharmacokinetic (PK) experiment. Other minor phlorotannins than the three notable ones identified were 2-O-(2,4,6-Trihydroxyphenyl)-6,6′-bieckol (7.217 min), 6,6′-bieckol (7.717 min), 7-phloroeckol (7.717 min), 2-phloroeckol (9.883 min), eckol (10.450 min), dioxinodehydroeckol (23.100 min) and fucofuroeckol A (23.650 min). Other notable peaks, such as those at 12.133, 17.483, 20.833, and 21.250 min, remain unidentified due to the technical challenges in isolating and identifying the corresponding single compounds.
The hydroxyl protons observed in the phlorotannin structures are attached to aromatic rings, resulting in distinct downfield shifts (near 9 ppm) due to the electron-withdrawing effects of the aromatic system. This contrasts with the hydroxyl groups found in aliphatic alcohols in general. […]
^1H NMR (500 MHz) was acquired on Bruker Avance III 500 MHz NMR spectrometer (Bruker Corporation, Billerica, MA, USA) using DMSO-d6 as a solvent. […] To quantify the total polyphenolic content of EK-ECP, the Folin–Ciocalteu reagent was reacted with EK-ECP dissolved in 50% aqueous ethanol, and the resulting solution was analyzed using a UV–Vis spectrophotometer (SPECTROstarNano, BMG Labtech, Ortenberg, Germany) at 725 nm. […]

| Compound | relative polarity within the phlorotannin extract |
| --- | --- |
| Oc1cc(O)cc(Oc2c(O)cc(O)c3c2Oc2c(O)cc4oc5c(Oc6cc(O)cc(O)c6)c(O)cc(O)c5c4c2O3)c1 [PFF-A, phlorofucofuroeckol-A] | the most lipophilic |
| Oc1cc(O)cc(Oc2c(O)cc(O)c3c2Oc2c(cc(O)c(-c4c(O)cc5c(c4O)Oc4c(Oc6cc(O)cc(O)c6)c(O)cc(O)c4O5)c2O)O3)c1 [8,8′-bieckol] | the most hydrophilic |
| Oc1cc(O)cc(Oc2c(O)cc(O)c3c2Oc2c(O)cc(Oc4c(O)cc(Oc5c(O)cc(O)c6c5Oc5c(O)cc(O)cc5O6)cc4O)cc2O3)c1 [dieckol] | in between |
